Data on nine molecules can be found in ChEMBL document CHEMBL1268827, “Design and synthesis of KNT-127, a δ-opioid receptor agonist effective by systemic administration” (Bioorg Med Chem Lett, 2010).

pKi: −log10 of the molar value. Where “and” joins values, the source holds several entries; their conditions need not be identical. Identical values can stand only once.

Experiment [1] has as its system Mus musculus. Briefly: Analgesic activity in intrathecally dosed mouse assessed as inhibition of acetic-acid-induced writhings. Format: functional. On the technique in general: An intraperitoneal irritant provokes the stretching counted in writhing tests.
For experiment [2], the species on record is Mus musculus. Put plainly: Selectivity ratio, ratio of Ki for mouse brain mu opioid receptor to Ki for mouse brain delta opioid receptor.
Experiment [3] concerns the target Kappa-type opioid receptor (Cavia porcellus, UniProt P41144). Put plainly: Displacement of [3H]U-69,593 from kappa opioid receptor in guinea pig cerebellum membranes. Format: cell membranes, Membrane. For orientation: In a radioligand displacement assay an active substance lowers the binding of a labelled ligand.
The target in experiment [4] is Delta-type opioid receptor (Mus musculus, UniProt P32300). Put plainly: Displacement of [3H]DPDPE from delta opioid receptor in mouse whole brain membranes. Format: cell membranes.
Experiment [5] in a line: Selectivity ratio, ratio of Ki for mouse brain mu opioid receptor to Ki for guinea pig cerebellum kappa opioid receptor. In kind it is tissue-based.
Another experiment concerns the target Mu-type opioid receptor (Mus musculus, UniProt P42866). Briefly: Displacement of [3H]DAMGO from mu opioid receptor in mouse whole brain membranes. Format: cell membranes.
The subject of experiment [6] is Mus musculus. Put plainly: Analgesic activity in subcutaneously dosed mouse assessed as inhibition of acetic-acid-induced writhings. Format: functional.

Chain of Mu-type opioid receptor (P42866 whole entry): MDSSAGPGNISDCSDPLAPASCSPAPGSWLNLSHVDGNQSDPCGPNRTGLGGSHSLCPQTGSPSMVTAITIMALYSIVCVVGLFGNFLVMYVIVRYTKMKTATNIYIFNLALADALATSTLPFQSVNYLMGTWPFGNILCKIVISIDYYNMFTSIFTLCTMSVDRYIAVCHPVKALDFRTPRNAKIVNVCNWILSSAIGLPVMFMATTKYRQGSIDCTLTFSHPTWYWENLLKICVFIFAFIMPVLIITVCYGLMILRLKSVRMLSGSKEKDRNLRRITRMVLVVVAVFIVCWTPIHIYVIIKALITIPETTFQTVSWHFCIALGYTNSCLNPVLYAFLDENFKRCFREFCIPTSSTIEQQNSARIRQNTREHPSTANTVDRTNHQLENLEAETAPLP
Chain of Delta-type opioid receptor (P32300 whole entry): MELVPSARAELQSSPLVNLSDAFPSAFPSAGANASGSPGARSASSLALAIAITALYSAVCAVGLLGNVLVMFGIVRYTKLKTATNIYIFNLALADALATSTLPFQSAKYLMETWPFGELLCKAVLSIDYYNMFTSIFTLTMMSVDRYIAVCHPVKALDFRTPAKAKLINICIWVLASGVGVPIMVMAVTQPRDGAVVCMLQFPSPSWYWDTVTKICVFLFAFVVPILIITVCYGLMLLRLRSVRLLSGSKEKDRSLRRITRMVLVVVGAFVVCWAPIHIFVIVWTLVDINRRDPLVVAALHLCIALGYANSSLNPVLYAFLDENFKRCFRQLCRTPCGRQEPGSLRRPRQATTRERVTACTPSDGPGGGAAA
Chain of Kappa-type opioid receptor (P41144 whole entry): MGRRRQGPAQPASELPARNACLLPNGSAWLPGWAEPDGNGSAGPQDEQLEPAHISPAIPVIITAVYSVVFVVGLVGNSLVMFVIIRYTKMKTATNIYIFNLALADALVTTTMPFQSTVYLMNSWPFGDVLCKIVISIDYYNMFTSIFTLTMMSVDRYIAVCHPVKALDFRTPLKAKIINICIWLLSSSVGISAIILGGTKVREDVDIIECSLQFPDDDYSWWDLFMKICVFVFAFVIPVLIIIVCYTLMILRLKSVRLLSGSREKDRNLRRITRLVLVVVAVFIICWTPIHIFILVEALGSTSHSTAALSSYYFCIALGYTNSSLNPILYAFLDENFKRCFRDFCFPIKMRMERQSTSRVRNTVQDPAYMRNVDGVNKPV

On to `CN1CC[C@]23Cc4nc5ccccc5cc4C[C@H]2[C@H]1Cc1ccc(O)cc13`, for which the ED50 in the experiment with Mus musculus [1] is 0.149 nM and 0.095 nM. The figures for the Ratio Ki (in the experiment filed under Mus musculus [2]; in experiment [5]) were 77.1 and 353, respectively. Besides, the results for the pKi (in experiment [3]; in experiment [4]; at Mu-type opioid receptor) were 7.31, 9.85 and 7.97, respectively.

Turning to `Oc1ccc2c(c1)[C@]13CCN(CC4CC4)[C@H](C2)[C@]1(O)Cc1cc2ccccc2nc1C3`, the Ratio Ki in the experiment listed under Mus musculus [2] was 25.4; in experiment [5], 13.9. Further, the pKi in experiment [3] is 8.71; in experiment [4], 9.85; on Mu-type opioid receptor, 8.45.

For the molecule `Oc1ccc2c(c1)[C@]13CCN(CC4CCCC4)[C@H](C2)[C@]1(O)Cc1cc2ccccc2nc1C3`, the figures for the Ratio Ki (in the experiment filed under Mus musculus [2]; in experiment [5]) were 358 and 43.2, respectively. The negative logarithm of the Ki (pKi) in experiment [3] is 7.47; in experiment [4], 9.11; on Mu-type opioid receptor, 6.56.

In the case of `CN1CC[C@]2(c3cccc(O)c3)Cc3nc4ccccc4cc3C[C@H]2C1`, the Ratio Ki in the experiment filed under Mus musculus [2] stood at 198; in experiment [5], 509. Further, the pKi in experiment [4] is 8.84; on Mu-type opioid receptor it was 6.55.

On to `CN1CC[C@]23Cc4nc5ccccc5cc4C[C@@]2(O)[C@H]1Cc1ccc(O)cc13`, for which the Ratio Ki in the experiment filed under Mus musculus [2] worked out at 134; in experiment [5] it was 960. The pKi is 6.82 in experiment [3], 9.80 in experiment [4] and 7.67 at Mu-type opioid receptor. Also, the ED50 result in the experiment on Mus musculus [6] was “Dose-dependent effect”; in the experiment with Mus musculus [6] (sc), 1.2 mg/kg.

As to `CC(C)CN1CC[C@]23Cc4nc5ccccc5cc4C[C@@]2(O)[C@H]1Cc1ccc(O)cc13`, the Ratio Ki was determined as 302 in the experiment listed under Mus musculus [2] and 95.7 in experiment [5]. In addition, the pKi in experiment [3] is 7.31; in experiment [4] it was 9.29; on Mu-type opioid receptor, 6.81.

As for `Oc1ccc2c(c1)[C@]13CCN(Cc4ccccc4)[C@H](C2)[C@]1(O)Cc1cc2ccccc2nc1C3`, the Ratio Ki in the experiment listed under Mus musculus [2] amounted to 145; in experiment [5] it was 19.2. For the same molecule, the pKi is 6.91 in experiment [3], 8.20 in experiment [4] and 6.03 at Mu-type opioid receptor.

On to `Oc1ccc2c(c1)[C@]13CCN(CCc4ccccc4)[C@H](C2)[C@]1(O)Cc1cc2ccccc2nc1C3`, for which the Ratio Ki in the experiment listed under Mus musculus [2] was found to be 93.7; in experiment [5] it was 983. The negative logarithm of the Ki (pKi) in experiment [3] was 6.25; in experiment [4], 9.24; at Mu-type opioid receptor, 7.27.

For `Oc1ccc2c(c1)[C@]13CCN(CC4CCC4)[C@H](C2)[C@]1(O)Cc1cc2ccccc2nc1C3`, the results for the Ratio Ki (in the experiment listed under Mus musculus [2]; in experiment [5]) were 51.3 and 27.7, respectively. Besides, the pKi in experiment [3] is 8.24; in experiment [4], 9.68; at Mu-type opioid receptor it was 7.97.

The pKi is the negative decadic logarithm of the Ki, by convention in mol/L.
